Results: ChEMBL document CHEMBL4138146, “A Schmidt rearrangement-mediated synthesis of novel tetrahydro-benzo[1,4]diazepin-5-ones as potential anticancer and antiprotozoal agents” (Eur J Med Chem, 2017)
Values after ≈ are worked out from the molar mass of the structure shown.

Legend:
[1] = tested on: U-937; test: Cytotoxicity against human U937 cells after 72 hrs by MTT assay; type: functional; details: U-937, 72 h, read-out: LC50 (the source's name)
[2] = tested on: T47D; test: Growth inhibition of human T47D cells assessed as cell growth at 10 uM incubated for 48 hrs by sulforhodamine B assay relative to control; type: functional; details: read-out: Activity
[3] = tested on: 786-0; test: Growth inhibition of human 786-0 cells assessed as cell growth at 10 uM incubated for 48 hrs by sulforhodamine B assay relative to control; type: functional; details: 786-0, 48 h, read-out: Activity
[4] = tested on: HCT-15; test: Growth inhibition of human HCT15 cells assessed as cell growth at 10 uM incubated for 48 hrs by sulforhodamine B assay relative to control; type: functional; details: HCT-15, 48 h, read-out: Activity
[5] = tested on: SF-268; test: Growth inhibition of human SF268 cells assessed as cell growth at 10 uM incubated for 48 hrs by sulforhodamine B assay relative to control; type: functional; details: SF-268, 48 h, read-out: Activity
[6] = tested on: MOLT-4; test: Growth inhibition of human MOLT4 cells assessed as cell growth at 10 uM incubated for 48 hrs by sulforhodamine B assay relative to control; type: functional; details: MOLT-4, 48 h, read-out: Activity
[7] = tested on: SK-MEL-5; test: Growth inhibition of human SK-MEL-5 cells assessed as cell growth at 10 uM incubated for 48 hrs by sulforhodamine B assay relative to control; type: functional; details: SK-MEL-5, 48 h, read-out: Activity
[8] = tested on: HL-60(TB); test: Growth inhibition of human HL-60(TB) cells assessed as cell growth at 10 uM incubated for 48 hrs by sulforhodamine B assay relative to control; type: functional; details: HL-60, 48 h, read-out: Activity
[9] = tested on: SF-295; test: Growth inhibition of human SF295 cells assessed as cell growth at 10 uM incubated for 48 hrs by sulforhodamine B assay relative to control; type: functional; details: SF-295, 48 h, read-out: Activity
[10] = tested on: Trypanosoma cruzi; test: Antitrypanosomal activity against Trypanosoma cruzi Tulahuen amastigote forms infected in human U937 cells after 72 hrs by beta-galactosidase reporter gene assay; type: functional, organism-based; details: U-937, 72 h
[11] = tested on: UACC-62; test: Growth inhibition of human UACC62 cells assessed as cell growth at 10 uM incubated for 48 hrs by sulforhodamine B assay relative to control; type: functional; details: UACC-62, 48 h, read-out: Activity
[12] = tested on: M14; test: Growth inhibition of human M14 cells assessed as cell growth at 10 uM incubated for 48 hrs by sulforhodamine B assay relative to control; type: functional; details: M14, 48 h, read-out: Activity
[13] = tested on: KM12; test: Growth inhibition of human KM12 cells assessed as cell growth at 10 uM incubated for 48 hrs by sulforhodamine B assay relative to control; type: functional; details: KM12, 48 h, read-out: Activity
[14] = tested on: SR; test: Growth inhibition of human SR cells assessed as cell growth at 10 uM incubated for 48 hrs by sulforhodamine B assay relative to control; type: functional; details: read-out: Activity
[15] = tested on: MCF7; test: Growth inhibition of human MCF7 cells assessed as cell growth at 10 uM incubated for 48 hrs by sulforhodamine B assay relative to control; type: functional; details: MCF7, 48 h, read-out: Activity
[16] = tested on: Hs-578T; test: Growth inhibition of human Hs 578T cells assessed as cell growth at 10 uM incubated for 48 hrs by sulforhodamine B assay relative to control; type: functional; details: read-out: Activity
[17] = tested on: MDA-MB-435; test: Growth inhibition of human MDA-MB-435 cells assessed as cell growth at 10 uM incubated for 48 hrs by sulforhodamine B assay relative to control; type: functional; details: MDA-MB-435, 48 h, read-out: Activity
[18] = tested on: HCC 2998; test: Growth inhibition of human HCC2998 cells assessed as cell growth at 10 uM incubated for 48 hrs by sulforhodamine B assay relative to control; type: functional; details: HCC 2998, 48 h, read-out: Activity
[19] = tested on: HCT-116; test: Growth inhibition of human HCT116 cells assessed as cell growth at 10 uM incubated for 48 hrs by sulforhodamine B assay relative to control; type: functional; details: HCT-116, 48 h, read-out: Activity
[20] = tested on: SNB-19; test: Growth inhibition of human SNB19 cells assessed as cell growth at 10 uM incubated for 48 hrs by sulforhodamine B assay relative to control; type: functional; details: SNB-19, 48 h, read-out: Activity
[21] = tested on: U-251; test: Growth inhibition of human U251 cells assessed as cell growth at 10 uM incubated for 48 hrs by sulforhodamine B assay relative to control; type: functional; details: U-251, 48 h, read-out: Activity
[22] = tested on: K562; test: Growth inhibition of human K562 cells assessed as cell growth at 10 uM incubated for 48 hrs by sulforhodamine B assay relative to control; type: functional; details: K562, 48 h, read-out: Activity
[23] = tested on: Plasmodium falciparum; test: Antimalarial activity against chloroquine-sensitive Plasmodium falciparum 3D7 incubated for 48 hrs by malstat reagent based LDH release assay; type: functional, organism-based; details: 3D7, 48 h
[24] = tested on: OVCAR-3; test: Growth inhibition of human OVCAR3 cells assessed as cell growth at 10 uM incubated for 48 hrs by sulforhodamine B assay relative to control; type: functional; details: OVCAR-3, 48 h, read-out: Activity
[25] = tested on: Leishmania panamensis; test: Antileishmanial activity against EpiR/GFP fused Leishmania panamensis MHOM/CO/87/UA140 intracellular amastigotes infected in human […] cells after 72 hrs by flow cytometric method; type: functional, organism-based; details: MHOM/CO/87/UA140, 72 h
[26] = tested on: EKVX; test: Growth inhibition of human EKVX cells assessed as cell growth at 10 uM incubated for 48 hrs by sulforhodamine B assay relative to control; type: functional; details: read-out: Activity
[27] = tested on: SW-620; test: Growth inhibition of human SW620 cells assessed as cell growth at 10 uM incubated for 48 hrs by sulforhodamine B assay relative to control; type: functional; details: SW-620, 48 h, read-out: Activity
[28] = tested on: NCI-H23; test: Growth inhibition of human NCI-H23 cells assessed as cell growth at 10 uM incubated for 48 hrs by sulforhodamine B assay relative to control; type: functional; details: NCI-H23, 48 h, read-out: Activity
[29] = tested on: MDA-MB-231; test: Growth inhibition of human MDA-MB-231 cells assessed as cell growth at 10 uM incubated for 48 hrs by sulforhodamine B assay relative to control; type: functional; details: MDA-MB-231, 48 h, read-out: Activity
[30] = tested on: IGROV-1; test: Growth inhibition of human IGROV1 cells assessed as cell growth at 10 uM incubated for 48 hrs by sulforhodamine B assay relative to control; type: functional; details: IGROV-1, 48 h, read-out: Activity
[31] = tested on: UACC-257; test: Growth inhibition of human UACC257 cells assessed as cell growth at 10 uM incubated for 48 hrs by sulforhodamine B assay relative to control; type: functional; details: UACC-257, 48 h, read-out: Activity
[32] = tested on: NCI-H460; test: Growth inhibition of human NCI-H460 cells incubated for 48 hrs by sulforhodamine B assay; type: functional; details: NCI-H460, 48 h
[33] = tested on: ACHN; test: Growth inhibition of human ACHN cells incubated for 48 hrs by sulforhodamine B assay; type: functional
[34] = tested on: K562; test: Growth inhibition of human K562 cells incubated for 48 hrs by sulforhodamine B assay; type: functional; details: K562, 48 h

## CCCCOc1nc2c(C)cccc2cc1C1CNC(=O)c2ccccc2N1 (configuration not stated)
[1]
  CC50: 1 µg/mL (≈ 2.66 µM)
[2]
  growth at 10 µM: 58.4%
[3]
  growth at 10 µM: 46.2%
[4]
  growth at 10 µM: 43.4%
[5]
  growth at 10 µM: 66.9%
[6]
  growth at 10 µM: 39%
[7]
  growth at 10 µM: 43.4%
[8]
  growth at 10 µM: 26.2%
[9]
  growth at 10 µM: 52.5%
[10]
  EC50: 2.68 µg/mL (≈ 7.14 µM)
[11]
  growth at 10 µM: 29.1%
[12]
  growth at 10 µM: 54.7%
[13]
  growth at 10 µM: 56.4%
[14]
  growth at 10 µM: 18.1%
[15]
  growth at 10 µM: 15.8%
[16]
  growth at 10 µM: 69.7%
[17]
  growth at 10 µM: 4.51%
[18]
  growth at 10 µM: 101%
[19]
  growth at 10 µM: 45.9%
[20]
  growth at 10 µM: 47%
[21]
  growth at 10 µM: 63.7%
[22]
  growth at 10 µM: 19%
[23]
  EC50: > 20 µg/mL
[24]
  growth at 10 µM: 20%
[25]
  EC50: 3.35 µg/mL (≈ 8.92 µM)
[26]
  growth at 10 µM: 61.9%
[27]
  growth at 10 µM: 42.3%
[28]
  growth at 10 µM: 80%
[29]
  growth at 10 µM: 65.3%

## Cc1ccc2[nH]c(=O)c(C3CNC(=O)c4ccccc4N3)cc2c1 (configuration not stated)
[1]
  CC50: 52.8 µg/mL (≈ 165 µM)
[2]
  growth at 10 µM: 116%
[3]
  growth at 10 µM: 103%
[4]
  growth at 10 µM: 105%
[5]
  growth at 10 µM: 99.5%
[6]
  growth at 10 µM: 113%
[7]
  growth at 10 µM: 98.6%
[8]
  growth at 10 µM: 107%
[9]
  growth at 10 µM: 103%
[10]
  EC50: 46.3 µg/mL (≈ 145 µM)
[11]
  growth at 10 µM: 98.4%
[12]
  growth at 10 µM: 103%
[13]
  growth at 10 µM: 102%
[14]
  growth at 10 µM: 133%
[15]
  growth at 10 µM: 102%
[16]
  growth at 10 µM: 105%
[17]
  growth at 10 µM: 108%
[18]
  growth at 10 µM: 107%
[19]
  growth at 10 µM: 106%
[20]
  growth at 10 µM: 99.3%
[21]
  growth at 10 µM: 99.5%
[22]
  growth at 10 µM: 111%
[23]
  EC50: 60.9 µg/mL (≈ 191 µM)
[24]
  growth at 10 µM: 107%
[25]
  EC50: 22.9 µg/mL (≈ 71.8 µM)
[26]
  growth at 10 µM: 102%
[27]
  growth at 10 µM: 106%
[28]
  growth at 10 µM: 97.1%
[29]
  growth at 10 µM: 114%

## Cc1cccc2cc(C3CNC(=O)c4ccccc4N3)c(=O)[nH]c12 (configuration not stated)
[2]
  growth at 10 µM: 93.1%
[3]
  growth at 10 µM: 111%
[4]
  growth at 10 µM: 102%
[5]
  growth at 10 µM: 99.6%
[30]
  growth at 10 µM: 106%
[7]
  growth at 10 µM: 102%
[8]
  growth at 10 µM: 116%
[9]
  growth at 10 µM: 98.8%
[11]
  growth at 10 µM: 106%
[12]
  growth at 10 µM: 98.4%
[13]
  growth at 10 µM: 99.6%
[14]
  growth at 10 µM: 110%
[15]
  growth at 10 µM: 98.8%
[16]
  growth at 10 µM: 105%
[17]
  growth at 10 µM: 106%
[18]
  growth at 10 µM: 103%
[19]
  growth at 10 µM: 95.5%
[20]
  growth at 10 µM: 114%
[21]
  growth at 10 µM: 94.5%
[22]
  growth at 10 µM: 118%
[24]
  growth at 10 µM: 104%
[26]
  growth at 10 µM: 98.4%
[31]
  growth at 10 µM: 100%
[27]
  growth at 10 µM: 110%
[28]
  growth at 10 µM: 98.4%
[29]
  growth at 10 µM: 110%

## COc1cccc2c1C(=O)c1c(O)c3c(c(O)c1C2=O)C[C@@](O)(C(=O)CO)C[C@@H]3O[C@H]1C[C@H](N)[C@H](O)[C@H](C)O1 [DOXORUBICIN]
[32]
  GI50: 20 nM
[33]
  GI50: 80 nM
[33]; read-out: LC50 (the source's name)
  CC50: 100000 nM
[34]
  GI50: 190 nM

## O=C1NCC(c2cc3ccccc3[nH]c2=O)Nc2ccccc21 (configuration not stated)
[1]
  CC50: 36.3 µg/mL (≈ 119 µM)
[2]
  growth at 10 µM: 91%
[3]
  growth at 10 µM: 100%
[4]
  growth at 10 µM: 106%
[5]
  growth at 10 µM: 99.9%
[6]
  growth at 10 µM: 111%
[7]
  growth at 10 µM: 97.2%
[8]
  growth at 10 µM: 95.7%
[9]
  growth at 10 µM: 106%
[10]
  EC50: 48.8 µg/mL (≈ 160 µM)
[11]
  growth at 10 µM: 98.3%
[12]
  growth at 10 µM: 101%
[13]
  growth at 10 µM: 103%
[14]
  growth at 10 µM: 100%
[15]
  growth at 10 µM: 103%
[16]
  growth at 10 µM: 99.4%
[17]
  growth at 10 µM: 107%
[18]
  growth at 10 µM: 104%
[19]
  growth at 10 µM: 92.6%
[20]
  growth at 10 µM: 102%
[21]
  growth at 10 µM: 102%
[22]
  growth at 10 µM: 90.2%
[23]
  EC50: 64.7 µg/mL (≈ 212 µM)
[24]
  growth at 10 µM: 111%
[25]
  EC50: 110 µg/mL (≈ 361 µM)
[26]
  growth at 10 µM: 106%
[27]
  growth at 10 µM: 102%
[28]
  growth at 10 µM: 97.4%
[29]
  growth at 10 µM: 97.9%
